Measurements from article PMC5602572, “New carboxamide derivatives bearing benzenesulphonamide as a selective COX-II inhibitor: Design, synthesis and structure-activity relationship” (PLoS ONE, 2017).
Where two headings read alike, the source gives them in different places.

Legend:
COX-2 = target: T1, COX-2 (Ovis aries, UniProt P79208); assay: In vitro cyclooxygenase inhibitory assay (Cayman colorimetric COX (ovine) inhibitor screening kit), COX-2; type: biochemical; conditions: for inhibition at 2 µM: read-out: COX-2 (%) inhibition; for S I (selectivity COX-2/COX-1): ratio of % inhibition COX-2/COX-1 at 2.0 μM
T1 construct: purchased Cayman chemicals, USA
T1 sequence (P79208 17-603): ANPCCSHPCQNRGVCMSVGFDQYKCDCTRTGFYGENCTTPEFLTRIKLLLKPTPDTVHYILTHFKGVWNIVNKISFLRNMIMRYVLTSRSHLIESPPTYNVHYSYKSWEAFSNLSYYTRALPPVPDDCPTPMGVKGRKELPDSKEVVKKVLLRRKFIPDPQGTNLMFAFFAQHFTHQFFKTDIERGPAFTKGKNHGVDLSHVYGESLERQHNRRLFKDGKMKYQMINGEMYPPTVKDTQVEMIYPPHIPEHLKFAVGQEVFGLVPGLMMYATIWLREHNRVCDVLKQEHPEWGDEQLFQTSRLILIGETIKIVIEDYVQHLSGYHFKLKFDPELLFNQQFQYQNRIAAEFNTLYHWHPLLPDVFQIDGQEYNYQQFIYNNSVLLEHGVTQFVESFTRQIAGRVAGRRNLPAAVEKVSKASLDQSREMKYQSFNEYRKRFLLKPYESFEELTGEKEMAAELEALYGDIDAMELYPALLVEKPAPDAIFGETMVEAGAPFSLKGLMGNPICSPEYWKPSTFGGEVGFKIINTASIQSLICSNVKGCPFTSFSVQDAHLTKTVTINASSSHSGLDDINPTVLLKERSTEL
Protocol: (§1) The calculations were performed as per the kit guidelines.

[1] = Determination of LD50 in mice; conditions: mouse, in vivo, ip; male mice, intraperitoneal, observation 72 h
Protocol: Male mice were divided into various groups and test compounds were administered in various doses intraperitoneally. […] All behavioral changes and deaths during the observation periods were recorded. The percentage of death at each dose level was then calculated, converted to probits and the LD50 (μM/kg) values were calculated. To observe the health status of the mice, they were monitored 4 times a day. […] For the purpose of ameliorating the suffering of the dying mice, CO2 euthanasia was applied. All the dead mice were disposed in bio-safety containers in accordance with local standard protocols. The mortality rate in each group was calculated according to the formula: Mortality rate(%)=(the number of dead mice/the number of mice in the group)×100.

COX-1 = target: T2, COX-1 (Ovis aries, UniProt P05979); assay: In vitro cyclooxygenase inhibitory assay (Cayman colorimetric COX (ovine) inhibitor screening kit), COX-1; type: biochemical; conditions: read-out: COX-1 (%) inhibition
T2 construct: purchased Cayman chemicals, USA
T2 sequence (P05979 25-600): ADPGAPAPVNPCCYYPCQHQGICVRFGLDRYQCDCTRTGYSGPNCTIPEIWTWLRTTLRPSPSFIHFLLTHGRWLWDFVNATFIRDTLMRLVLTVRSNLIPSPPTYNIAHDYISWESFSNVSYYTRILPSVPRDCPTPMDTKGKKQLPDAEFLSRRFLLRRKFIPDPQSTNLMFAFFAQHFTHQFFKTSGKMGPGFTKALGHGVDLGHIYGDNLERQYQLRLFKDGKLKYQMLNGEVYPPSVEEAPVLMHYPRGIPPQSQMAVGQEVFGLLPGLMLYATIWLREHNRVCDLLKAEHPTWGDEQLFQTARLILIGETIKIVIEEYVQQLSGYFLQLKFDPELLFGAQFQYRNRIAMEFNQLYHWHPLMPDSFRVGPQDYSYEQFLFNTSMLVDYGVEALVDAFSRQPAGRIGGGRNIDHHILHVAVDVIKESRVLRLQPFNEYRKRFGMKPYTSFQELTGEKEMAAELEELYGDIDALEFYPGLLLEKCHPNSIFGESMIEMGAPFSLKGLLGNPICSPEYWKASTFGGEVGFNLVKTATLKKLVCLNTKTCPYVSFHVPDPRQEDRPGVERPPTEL
Protocol: as §1

[2] = tested on: carrageenan induced rat paw edema; assay: carrageenan-induced rat paw edema bioassay; type: in vivo; conditions: % inhibition of carrageenan induced rat paw edema, intraperitoneal; for Anti-inflammatory activity, 0.5 h (%): 0.5 h after treatment; for Anti-inflammatory activity, 1 h (%): 1 h after treatment; for Anti-inflammatory activity, 2 h (%): 2 h after treatment; for Anti-inflammatory activity, 3 h (%): 3 h after treatment
Protocol: Male albino rats weighing 300 g where purchased from the Department of Zoology and Environmental Biology, University of Nigeria, Nsukka and kept at room temperature in a light controlled animal house. They were fasted with free access to water at least 12 h prior to the experiments. […] The positive control received celecoxib while the negative control received only the vehicle. Edema was produced by injecting 0.2 mL of a solution of 1% carrageenan in the hind paw. The rats were injected intraperitoneally with 1 mL suspension in 0.5% methylcellulose of the tested compounds and reference drug. Paw volume was measured by water displacement with a plethysmometer (UGO BASILE) before, 30 min, 1 h, 2 h and 3 h after treatment. The percentage was calculated by the following equation [25].
Anti-inflammatory activity (%) = (1-D/C)[…], where D represents the difference in paw volume before and after drug administration to the rats and C represents the difference of volume in the control groups. The approval for the use of animal was obtained from the University of Nigeria committee on experimental animal use. No sign of death was observed during the experiment.

With `Cc1ccc(S(=O)(=O)N(C(=O)c2ccccc2)[C@@H](Cc2ccccc2)C(=O)Nc2cc(C)ccn2)cc1` [Compound 7j, (2S)-2-[N-(4-methylbenzenesulfonyl)-1-phenylformamido]-N-(4-methylpyridin-2-yl)-3-phenyl propanamide] as the compound, how does the inhibition at 2 µM (COX-2; concentration of 2.0 μM) read?
The inhibition at 2 µM was 30%.

What about the “S I (selectivity COX-2/COX-1)” value (COX-2) of the same compound?
Its value is 3.00.

And the LD50 at 72 h [1]?
Its LD50 at 72 h is 17.6 µmol/kg.

And the inhibition at 2 µM (COX-1; concentration of 2.0 μM)?
The inhibition at 2 µM was 10%.

And the “Anti-inflammatory activity, 0.5 h (%)” value [2]?
Its value is 41.54%.

And the “Anti-inflammatory activity, 1 h (%)” value [2]?
The value was 40.59%.

What about the “Anti-inflammatory activity, 2 h (%)” value [2] of the same compound?
Its value is 39.84%.

What about the “Anti-inflammatory activity, 3 h (%)” value [2] of the same compound?
The value was 36.42%.

For `Cc1ccc(S(=O)(=O)N(C(=O)c2ccccc2)[C@@H](Cc2cc3ccccc3[nH]2)C(=O)Nc2cc(C)ccn2)cc1` [Compound 7k, (2S)-3-(1H-indol-2-yl)-2-[N-(4-methylbenzenesulfonyl)-1-phenylformamido]-N-(4-methylpyridin-2-yl)propanamide], which inhibition at 2 µM (COX-2; concentration of 2.0 μM) is on record?
Its inhibition at 2 µM is 56%.

And the “S I (selectivity COX-2/COX-1)” value (COX-2)?
Its value is 18.67.

And the LD50 at 72 h [1]?
The LD50 at 72 h was 9.2 µmol/kg.

And the inhibition at 2 µM (COX-1; concentration of 2.0 μM)?
Its inhibition at 2 µM is 3%.

What about the “Anti-inflammatory activity, 0.5 h (%)” value [2] of the same compound?
Its value is 42.12%.

What about the “Anti-inflammatory activity, 1 h (%)” value [2] of the same compound?
The value was 56.12%.

What about the “Anti-inflammatory activity, 2 h (%)” value [2] of the same compound?
The value was 70.89%.

For `Cc1ccc(S(=O)(=O)N2CC(O)C[C@H]2C(=O)Nc2cc(C)ccn2)cc1` (stereo partly drawn) [Compound 7o, (2S)-4-Hydroxy-1-(4-methylbenzenesulfonyl)-N-(4-methylpyridin-2-yl)pyrrolidine-2-carboxamide], which inhibition at 2 µM (COX-2) is on record?
Its inhibition at 2 µM is 18%.

And the LD50 at 72 h [1]?
The LD50 at 72 h was 10.1 µmol/kg.

And the inhibition at 2 µM (COX-1)?
Its inhibition at 2 µM is 6%.

And the “Anti-inflammatory activity, 0.5 h (%)” value [2]?
The value was 21.54%.

And the “Anti-inflammatory activity, 1 h (%)” value [2]?
The value was 11.23%.

And the “Anti-inflammatory activity, 2 h (%)” value [2]?
The value was 8.78%.

What about the “Anti-inflammatory activity, 3 h (%)” value [2] of the same compound?
The value was 5.56%.

With `Cc1ccc(S(=O)(=O)N(C(=O)c2ccccc2)[C@H](C(=O)Nc2cc(C)ccn2)C(C)C)cc1` [Compound 7n, (2S)-3-Methyl-2-[N-(4-methylbenzenesulfonyl)-1-phenylformamido]-N-(4-methylpyridin-2-yl) butanamide] as the compound, how does the inhibition at 2 µM (COX-2; concentration of 2.0 μM) read?
Its inhibition at 2 µM is 48%.

What about the “selectivity for COX-2 (in words)” value (COX-2; from COX-2/COX-1 % inhibition at 2.0 μM) of the same compound?
Its value is “non-selective”.

What about the “S I (selectivity COX-2/COX-1)” value (COX-2) of the same compound?
Its value is 1.50.

And the LD50 at 72 h [1]?
Its LD50 at 72 h is 20.1 µmol/kg.

And the inhibition at 2 µM (COX-1; concentration of 2.0 μM)?
The inhibition at 2 µM was 32%.

What about the “Anti-inflammatory activity, 0.5 h (%)” value [2] of the same compound?
Its value is 21.54%.

And the “Anti-inflammatory activity, 1 h (%)” value [2]?
Its value is 16.47%.

And the “Anti-inflammatory activity, 2 h (%)” value [2]?
Its value is 10.56%.

What about the “Anti-inflammatory activity, 3 h (%)” value [2] of the same compound?
Its value is 3.09%.

Which results are given for `Cc1ccnc(NC(=O)[C@@H]2CCCN2S(=O)(=O)c2ccc([N+](=O)[O-])cc2)c1` [Compound 7h, (2S)-N-(4-methylpyridin-2-yl)-1-(4-nitrobenzenesulfonyl)pyrrolidine-2-carboxamide]?
inhibition at 2 µM (COX-2): 13%; LD50 at 72 h [1]: 10.7 µmol/kg; inhibition at 2 µM (COX-1): 30%; Anti-inflammatory activity, 0.5 h (%) [2]: 27.69%; Anti-inflammatory activity, 1 h (%) [2]: 17.06%; Anti-inflammatory activity, 2 h (%) [2]: 16.59%; Anti-inflammatory activity, 3 h (%) [2]: 16.05%
